Source: patent US20240122932A1, “Methods of Treating B-Cell Malignancy Using Bcl-2 Inhibitor” (BeiGene Switzerland GmbH, priority 2021, published 2024)

Columns and labels:
[1] = tested on: MAVER-1 mantle cell lymphoma (MCL) subcutaneous xenograft; assay: MAVER-1 MCL subcutaneous xenograft model; assay type: in vivo, NCG mice
Description: MAVER-1 cells are of mantle cell lymphoma (MCL) origin and were obtained from American Type Culture Collection (ATCC CRL-3008, Manassas, VA, DC, USA). Cells were grown in RPM 1640 medium (Corning, Cat #10-040-CVR), supplemented with 10% (v/v) fetal bovine serum (Gibco, Cat #10099-141C), and 100 μg/mL of penicillin and streptomycin (Gibco, Cat #15140-122). MAVER-1 cells were maintained as suspension cell cultures at 37° C. in a 5% CO2 atmosphere. Five to six-week-old female NCG mice were purchased from Gempharmatech of Information Technology Center. All animals were maintained under specific pathogen free (SPF) “full barrier” condition with free access to food and water. Mice were group-housed under a 12 h light:dark cycle (lights on at 08:00 h), at a temperature of 21-26° C. and 44-61% humidity in IVC cages (Lingyunboji (Beijing) Technology Co., Ltd.). Mice were fed with complete granulated feed with Co60 radiosterilization (Beijing Ke Ao Xie Li Feed Co., Ltd.).
On the day of implantation, MAVER-1 cells were harvested and re-suspended with appropriate volume of ice cold DPBS and same volume of Matrigel (Corning, Cat #356237) to give a final concentration of 1.5×10^7 cells/mL. Re-suspended cells were placed on ice prior to inoculation. The right front flank region of each mouse was cleaned with 75% ethanol prior to cell inoculation. Each animal was injected subcutaneously with 3×10^6 cells in 200 μL of cell suspension in the right front flank via a 26-gauge needle. After implantation, primary tumor volume was measured in two dimensions using a caliper.
Animals were randomly assigned into 7 groups with 10 mice per group according to body weight and tumor volume (100 mm^3-200 mm^3). The groups consisted of vehicle group, 5, 15 mg/kg of venetoclax with QD dosing, 5, 15 mg/kg of Compound 1 with QD dosing, and 2.5, 7.5 mg/kg of Compound 1 with BID dosing. Treatments were administered by oral gavage (p.o.) in a volume of 10 mL/kg body weight. Body weight was assessed immediately before dosing and volume dosed was adjusted accordingly.
(§1) Individual body weight was recorded twice weekly, with mice being monitored daily for clinical signs of toxicity for the duration of the study. Mice were euthanized using carbon dioxide when their tumor volume reached 2,000 mm^3, the tumor was ulcerated, or body weight loss exceeded 20%.
Tumor volume was calculated using the formula: V=0.5×(a×b^2) where a and b are the long and short diameters of the tumor, respectively. Tumor growth inhibition (TGI) was calculated using the following formula: % TGI=100×[1−(treatedt−treatedt0)/(vehiclet−vehiclet0)] (treated t=treated tumor volume at time t, treated t0=treated tumor volume at time 0, vehicle t=vehicle tumor volume at time t and vehicle t0=vehicle tumor volume at time 0)

[2] = tested on: JeKo-1 human mantle cell lymphoma (MCL) subcutaneous xenograft; assay: JeKo-1 human MCL subcutaneous xenograft model, Bcl-2 inhibitor with BTK inhibitor; assay type: in vivo, NCG mice; conditions: for TGI (%): day 21
Description: JeKo-1 cells were maintained as suspension cell cultures at 37° C. in a 5% CO2 atmosphere. Five to six-week-old female NCG mice were purchased from Gempharmatech of Information Technology Center. All animals were maintained under specific pathogen free (SPF) “full barrier” condition with free access to food and water. […] Mice were fed with complete granulated feed with Co60 radiosterilization (Beijing Ke Ao Xie Li Feed Co., Ltd.). All experiments were carried out in accordance with BeiGene's IACUC.
Re-suspended cells were placed on ice prior to inoculation. […] Each animal was injected subcutaneously with 1×10^7 cells in 200 μL of cell suspension in the right front flank via a 26-gauge needle. After implantation, primary tumor volume was measured in two dimensions using a caliper.
Transplanted animals were randomized into 8 groups with 10 mice per group on day 0 according to transplantation sequence and body weight. […] Treatments were administered by oral gavage (p.o.) in a volume of 10 mL/kg body weight. Body weight was assessed immediately before dosing and volume dosed was adjusted accordingly.
as §1
Tumor volume (TV) was calculated using the formula: TV=0.5×(a×b^2) where a and b are the long and short diameters of the tumor, respectively. […] (treated t=treated tumor volume at time t, vehicle t=vehicle tumor volume at time t)

SMILES | Mean Tumor volume (Day 14) (mm^3 ± SEM) ([1]; 2.5 mg/kg BID × 17 p.o.) | TGI (Day 14) ([1]; 2.5 mg/kg BID × 17 p.o.) | Mean Tumor volume (Day 14) (mm^3 ± SEM) ([1]; 5 mg/kg QD × 17 p.o.) | TGI (Day 14) ([1]; 5 mg/kg QD × 17 p.o.) | Mean Tumor volume (Day 14) (mm^3 ± SEM) ([1]; 7.5 mg/kg BID × 17 p.o.) | TGI (Day 14) ([1]; 7.5 mg/kg BID × 17 p.o.) | Mean Tumor volume (Day 14) (mm^3 ± SEM) ([1]; 15 mg/kg QD × 17 p.o.) | TGI (Day 14) ([1]; 15 mg/kg QD × 17 p.o.) | tumor growth suppression (in words) ([1]; mouse, in vivo) | anti-tumor activity relative to venetoclax ([1]; same total daily doses of 5 and 15 mg/kg) | Mean TV (D 21) (mm^3 ± SEM) ([2]; 5 mpk p.o. QD) | Mean TV (D 21) (mm^3 ± SEM) ([2]; 15 mpk p.o. QD) | Mean TV (D 21) (mm^3 ± SEM) ([2]; 50 mpk p.o. QD) | TGI (%) ([2]; 5 mpk p.o. QD, 5 mg/kg) | TGI (%) ([2]; 15 mpk p.o. QD, 15 mg/kg) | TGI (%) ([2]; 50 mpk p.o. QD, 50 mg/kg)
CC(C)c1ccccc1[C@@H]1CCCN1C1CC2(CCN(c3ccc(C(=O)NS(=O)(=O)c4ccc(NCC5CCC(C)(O)CC5)c([N+](=O)[O-])c4)c(Oc4cnc5[nH]ccc5c4)c3)CC2)C1 (stereo partly drawn) [Compound 1, 2-((1H-pyrrolo[2,3-b]pyridin-5-yl)oxy)-N-((4-((((1r,4r)-4-hydroxy-4-methylcyclohexyl)methyl)amino)-3-nitrophenyl)sulfonyl)-4-(2-((S)-2-(2-isopropylphenyl)pyrrolidin-1-yl)-7-azaspiro[3.5]nonan-7-yl)benzamide] | 511.5 ± 49.9 mm^3 | 77% | 383.5 ± 29.6 mm^3 | 86% | 136.2 ± 2.6 mm^3 | 103% | 140.5 ± 5.3 mm^3 | 103% | potently suppressed tumor growth in a dose-dependent manner | showed more anti-tumor activities relative to venetoclax | 1293.3 ± 100.0 mm^3 | 929.5 ± 73.6 mm^3 | 927.5 ± 100.6 mm^3 | 29% | 49% | 49%
CC1(C)CCC(CN2CCN(c3ccc(C(=O)NS(=O)(=O)c4ccc(NCC5CCOCC5)c([N+](=O)[O-])c4)c(Oc4cnc5[nH]ccc5c4)c3)CC2)=C(c2ccc(Cl)cc2)C1 [Venetoclax, reference compound] | – | – | 1082.1 ± 109.4 mm^3 | 38% | – | – | 315.4 ± 23.1 mm^3 | 91% | – | – | – | – | – | – | – | –
